Measured values reported in paper PMC3701070 (PLoS ONE, 2013).
Like-named read-outs stand apart in the source and are kept apart here.

Assays:
[1] = tested on: A375P tumor xenografts (BRAF^V600E); assay: Pharmacodynamic markers in A375P tumor xenografts; type: in vivo; conditions: A375P xenograft, mice, 30 mg/kg oral once daily
Experimental: Tumors were harvested, homogenized (BD Bioscience Medimachine) in 1 mL each of ice-cold Western Blot Analysis buffer containing 4 mM sodium pyrophosphate, then centrifuged (18 000×g, 15 min, 4°C), and flash-frozen. Samples were analyzed by duplex ELISA (MesoScale Discovery) for total and phospho ERK1/2 per the manufacturer’s instructions using an MSD SI6000 reader.
A375P tumors were harvested at 6 h after the sixth daily dose with compound or vehicle, cut into samples of ∼100 mm^3 in volume, fixed in 10% neutral-buffered formalin (NBF, VWR) for 24 h, and transferred into 70% ethanol prior to paraffin embedding. Paraffin-embedded blocks were sectioned (4 µm to 5 µm) and immunostained for ppERK, Ki67, and p27^Kip1 by Mosaic Laboratories (Lake Forest, CA).
Phospho-ERK (pERK) is normalized to total ERK (tERK). Tumors harvested 6h post-last 6th dose were stained for Ki67, p27, and ppERK by immunohistochemistry and compared with pre-treatment controls (B). Data are representative of n = 3 studies and percent changes were calculated from the ratio of positively stained cells following drug treatment to those following vehicle control treatment, each as a percentage of the total cell population.

[2] = tested on: phospho-MEK1/2 (pMEK) in ES-2 ovarian carcinoma (BRAF^V600E) cells; assay: Western blot, pMEK in ES-2 cells; type: cell-based; conditions: Homo sapiens; ES-2 cells (BRAF^V600E), 1 h, immunoblot; read-out: IC50 for pMEK inhibition
Experimental: (§1) Cells were lysed in 25 mM Tris-HCl pH 7.5, 2 mM EDTA, 2 mM EGTA, 1% Triton X-100, 0.1% SDS, 50 mM sodium-β-glycerophosphate, 2 mM Na3VO4, 12.5 mM sodium pyrophosphate, 2× Complete EDTA-free mini protease inhibitor tablets (Roche), 2× phosphatase inhibitor cocktails I and II (Sigma-Aldrich). Protein concentrations were determined by Bio-Rad DC™ or dye-based protein assays and lysates were resolved by SDS-PAGE (Invitrogen NuPAGE®) and transferred to PVDF membranes. Membranes were blocked with Odyssey® (LI-COR Biosciences) blocking buffer and incubated with primary antibodies overnight at 4°C. Blots were washed with PBS containing 0.1% Tween-20, incubated with secondary antibodies, and washed again prior to signal detection on a LI-COR Odyssey® reader.
Signals were quantified and used to determine IC50 values. (PPTX) Click here for additional data file.

[3] = tested on: Colo 205 tumor xenografts (BRAF^V600E); assay: Colo 205 tumor xenograft growth; type: in vivo, mice
Text: The 14-day period of dosing is indicated by the shaded gray bar.

[4] = target: T1, SIK (h) (Homo sapiens, UniProt P57059); assay: Kinase panel (Millipore) enzyme activity; type: biochemical
T1 construct: purchased Millipore

[5] = target: T2, NEK11 (h) (Homo sapiens, UniProt Q8NG66); assay: Kinase panel (Millipore) enzyme activity; type: biochemical
T2 construct: purchased Millipore

[6] = tested on: HCC-70; assay: Cell growth assay; type: cell-based; conditions: Homo sapiens, HCC70, 72 h; HCC-70, RAF WT, RAS WT, 3-day; read-out: gIC50
Outline: (§2)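 Growth was quantified by CellTiter-Glo luminescent ATP read-out, taken at t = 0 and again at 72 h. Growth-inhibition IC50 (gIC50) values were derived from these readings.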

[7] = tested on: ST486; assay: Cell growth assay; type: cell-based; conditions: Homo sapiens, 72 h; ST486, RAF WT, RAS WT, 3-day; read-out: gIC50
Outline: as §2

[8] = tested on: LS-174T; assay: Cell growth assay; type: cell-based; conditions: Homo sapiens, LS174T, 72 h, RAF WT, KRAS(G12D), 3-day, read-out: gIC50
Outline: as §2

[9] = tested on: Be(2)C; assay: Cell growth assay; type: cell-based; conditions: Homo sapiens, 72 h, RAF WT, RAS WT, 3-day, read-out: gIC50
Outline: as §2

[10] = tested on: NCI-H226; assay: Cell growth assay; type: cell-based; conditions: Homo sapiens, 72 h; NCI-H226, RAF WT, RAS WT, 3-day; read-out: gIC50
Outline: as §2

[11] = tested on: A549; assay: Cell growth assay; type: cell-based; conditions: Homo sapiens, 72 h; A549, RAF WT, KRAS(G12S), 3-day; read-out: gIC50
Outline: as §2

[12] = tested on: pMEK in A375P (BRAF^V600E) cells; assay: Western blot, pMEK in A375P cells; type: cell-based; conditions: Homo sapiens, 8 nM, 1 h
Experimental: as §1
siRNA complexes were prepared per the manufacturer's instructions using Dharmacon RNAi duplex (Thermo Fisher Scientific), Lipofectamine™ RNAiMAX™ (Invitrogen), and Opti-MEM® (Gibco) and allowed to form at room temperature for at least 40 min. Volumes of 1 mL of RNAi complex were added to each well of a plate with 150 000 cells in complete medium (no antibiotic) and incubated at 37°C, 5% CO2 for the indicated times.
Lysates were immunoblotted for the proteins indicated.

[13] = tested on: A375P tumor xenograft; conditions: groups of 8 mice, cited from earlier work
[14] = target: T3, PKD2 (h) (Homo sapiens, UniProt Q9BZL6); assay: Kinase panel (Millipore) enzyme activity; type: biochemical
T3 construct: purchased Millipore

[15] = tested on: pMEK and pERK in HCT-116 (wild-type BRAF, mutant KRAS) cells; assay: Western blot, paradoxical MAPK activation in HCT-116 cells; type: cell-based, human; conditions: 100 nM or 300 nM, 1 h
Experimental: as §1
Lysates were immunoblotted for total ERK (tERK) and dual-phosphorylated ERK (ppERK) (B).

[16] = target: T4, BRK (h) (Homo sapiens, UniProt Q13882); assay: Kinase panel (Millipore) enzyme activity; type: biochemical
T4 construct: purchased Millipore

[17] = target: ALK5 (Homo sapiens, UniProt P36897); assay: ALK5 cell-based assay
[18] = tested on: 195 tumor cell lines; assay: Cell growth assay, summary over 195 tumor cell lines; type: cell-based; conditions: Homo sapiens, read-out: gIC50
Experimental: Growth was measured with CellTiter-Glo® (Promega) reagent per the manufacturer’s protocol, using a PerkinElmer EnVision™ reader at t = 0 and 72 h. IC50 values for cell growth inhibition (gIC50) were determined.
The functional selectivity of dabrafenib was evaluated by measuring the growth of a range of human tumor cell lines of different genetic mutation status.
(PDF) Click here for additional data file.

T1 sequence (P57059 whole entry): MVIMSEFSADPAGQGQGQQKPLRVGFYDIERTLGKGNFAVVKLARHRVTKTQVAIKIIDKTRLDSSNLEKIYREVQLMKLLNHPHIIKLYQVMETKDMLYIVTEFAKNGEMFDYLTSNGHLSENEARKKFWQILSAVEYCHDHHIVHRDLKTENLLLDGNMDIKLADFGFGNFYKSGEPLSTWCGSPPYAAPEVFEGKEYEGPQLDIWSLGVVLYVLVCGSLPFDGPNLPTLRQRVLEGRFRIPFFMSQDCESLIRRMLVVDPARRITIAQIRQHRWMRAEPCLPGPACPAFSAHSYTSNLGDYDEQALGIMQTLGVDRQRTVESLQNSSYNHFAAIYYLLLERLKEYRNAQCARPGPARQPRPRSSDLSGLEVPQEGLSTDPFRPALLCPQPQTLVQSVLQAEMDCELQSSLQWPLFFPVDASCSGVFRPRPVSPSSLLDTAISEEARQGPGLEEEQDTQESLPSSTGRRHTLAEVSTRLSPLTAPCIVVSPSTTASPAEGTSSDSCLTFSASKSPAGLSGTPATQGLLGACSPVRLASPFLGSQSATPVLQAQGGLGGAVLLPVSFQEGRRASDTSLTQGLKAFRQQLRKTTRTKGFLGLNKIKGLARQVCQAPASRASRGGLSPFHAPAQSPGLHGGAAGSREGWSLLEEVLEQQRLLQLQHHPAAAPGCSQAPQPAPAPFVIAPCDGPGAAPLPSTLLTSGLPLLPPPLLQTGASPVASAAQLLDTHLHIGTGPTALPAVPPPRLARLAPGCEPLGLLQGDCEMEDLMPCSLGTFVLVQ
T4 sequence (Q13882 whole entry): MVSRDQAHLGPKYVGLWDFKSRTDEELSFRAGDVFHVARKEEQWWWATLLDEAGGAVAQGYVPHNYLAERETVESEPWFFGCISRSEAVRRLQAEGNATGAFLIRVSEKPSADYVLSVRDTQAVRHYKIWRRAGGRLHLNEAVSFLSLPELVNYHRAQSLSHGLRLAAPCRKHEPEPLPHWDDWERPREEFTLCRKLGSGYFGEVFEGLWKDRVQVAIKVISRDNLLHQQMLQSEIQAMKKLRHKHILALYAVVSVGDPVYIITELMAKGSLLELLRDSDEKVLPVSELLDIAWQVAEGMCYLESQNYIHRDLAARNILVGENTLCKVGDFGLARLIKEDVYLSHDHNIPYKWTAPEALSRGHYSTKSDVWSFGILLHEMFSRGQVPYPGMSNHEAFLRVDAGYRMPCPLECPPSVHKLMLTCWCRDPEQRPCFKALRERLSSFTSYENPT
T3 sequence (Q9BZL6 whole entry): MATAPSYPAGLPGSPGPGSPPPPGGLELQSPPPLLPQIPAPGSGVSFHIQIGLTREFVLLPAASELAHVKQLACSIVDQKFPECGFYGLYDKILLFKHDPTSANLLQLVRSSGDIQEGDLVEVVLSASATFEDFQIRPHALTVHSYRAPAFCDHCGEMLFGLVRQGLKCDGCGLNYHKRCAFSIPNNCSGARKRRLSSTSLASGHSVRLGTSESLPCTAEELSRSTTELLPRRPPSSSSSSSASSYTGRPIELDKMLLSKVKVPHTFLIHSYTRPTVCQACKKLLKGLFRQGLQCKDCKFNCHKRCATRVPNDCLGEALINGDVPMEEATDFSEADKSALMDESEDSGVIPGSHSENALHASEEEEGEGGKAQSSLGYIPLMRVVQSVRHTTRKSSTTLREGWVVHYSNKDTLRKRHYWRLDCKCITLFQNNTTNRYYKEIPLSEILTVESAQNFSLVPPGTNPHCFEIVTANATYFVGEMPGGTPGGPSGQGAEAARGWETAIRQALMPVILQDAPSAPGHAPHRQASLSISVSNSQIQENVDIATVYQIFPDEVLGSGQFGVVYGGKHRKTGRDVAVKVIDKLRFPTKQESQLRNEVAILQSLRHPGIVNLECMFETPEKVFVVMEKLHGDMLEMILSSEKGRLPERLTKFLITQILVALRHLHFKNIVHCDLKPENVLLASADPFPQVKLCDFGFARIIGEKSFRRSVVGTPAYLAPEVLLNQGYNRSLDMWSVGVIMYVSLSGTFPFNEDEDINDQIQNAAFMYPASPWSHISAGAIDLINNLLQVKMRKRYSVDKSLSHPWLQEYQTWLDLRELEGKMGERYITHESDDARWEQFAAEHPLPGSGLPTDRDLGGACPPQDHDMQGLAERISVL
T2 sequence (Q8NG66 whole entry): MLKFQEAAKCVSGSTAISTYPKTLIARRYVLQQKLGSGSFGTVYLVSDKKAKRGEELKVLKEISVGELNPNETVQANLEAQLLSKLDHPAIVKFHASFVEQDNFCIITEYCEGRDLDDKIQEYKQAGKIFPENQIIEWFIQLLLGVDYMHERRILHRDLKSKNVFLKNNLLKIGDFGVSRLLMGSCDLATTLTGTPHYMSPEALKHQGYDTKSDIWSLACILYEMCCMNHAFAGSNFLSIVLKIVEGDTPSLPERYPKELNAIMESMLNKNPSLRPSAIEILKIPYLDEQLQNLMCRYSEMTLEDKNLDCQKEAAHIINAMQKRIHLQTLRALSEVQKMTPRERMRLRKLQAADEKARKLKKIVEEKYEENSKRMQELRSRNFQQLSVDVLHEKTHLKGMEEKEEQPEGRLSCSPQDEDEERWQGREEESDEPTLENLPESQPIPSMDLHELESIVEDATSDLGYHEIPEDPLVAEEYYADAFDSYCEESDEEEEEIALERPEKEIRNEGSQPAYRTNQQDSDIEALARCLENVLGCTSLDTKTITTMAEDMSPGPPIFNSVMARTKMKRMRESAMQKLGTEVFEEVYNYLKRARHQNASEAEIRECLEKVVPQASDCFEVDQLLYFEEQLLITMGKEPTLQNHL
Chain of ALK5 (P36897 34-503, species assumed): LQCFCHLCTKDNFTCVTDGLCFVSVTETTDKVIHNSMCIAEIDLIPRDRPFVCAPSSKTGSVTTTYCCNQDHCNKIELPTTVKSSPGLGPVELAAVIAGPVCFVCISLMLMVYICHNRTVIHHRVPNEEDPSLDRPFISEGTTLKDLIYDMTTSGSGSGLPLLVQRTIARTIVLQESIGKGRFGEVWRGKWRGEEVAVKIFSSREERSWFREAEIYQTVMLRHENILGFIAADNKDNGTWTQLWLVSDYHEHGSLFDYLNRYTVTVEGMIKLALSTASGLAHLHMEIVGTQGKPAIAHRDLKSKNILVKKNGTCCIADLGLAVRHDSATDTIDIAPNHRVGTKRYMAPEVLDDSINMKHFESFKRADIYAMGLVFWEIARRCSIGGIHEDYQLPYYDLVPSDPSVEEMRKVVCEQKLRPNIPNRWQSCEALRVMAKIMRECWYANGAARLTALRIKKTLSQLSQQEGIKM

With `CC(C)(C)c1nc(-c2cccc(NS(=O)(=O)c3c(F)cccc3F)c2F)c(-c2ccnc(N)n2)s1` [dabrafenib] the “downregulation of Ki67 in tumors, immunohistochemistry” value ([1]; 6 h after sixth dose) was 28%, the “downregulation of pERK (ppERK) in tumors, immunohistochemistry” value ([1]; 6 h after sixth dose) was 89% and the “upregulation of p27 in tumors, immunohistochemistry” value ([1]; 6 h after sixth dose) was 54%. The “time post-dosing for which reduction of tumor pERK is sustained” value ([1]; after 7 and 14 days of dosing) was “up to 18 h”, the IC50 [2] was 0.006 µM and the partial regressions ([3]; Colo 205 xenograft, 100 mg/kg oral q.d. x 14) was 4 of 8 mice. For the same molecule, the “inhibition of tumor growth” value ([3]; Colo 205 xenograft, 3, 10, 30 and 100 mg/kg oral q.d. x 14) was “dose-dependent inhibition of tumor growth”, the IC50 [4] was 0.027 µM and the IC50 [5] was 0.02 µM. For the same molecule, the IC50 [6] was over 10 µM, the IC50 [7] was over 10 µM and the IC50 [8] was over 10 µM. It also gave an IC50 [9] of over 10 µM, an IC50 [10] of over 10 µM and an IC50 [11] of over 10 µM. For the same molecule, the inhibition at 0.008 µM [12] was over 90%, the complete regressions ([13]; 10 mg/kg) was 1 and the partial regressions ([13]; 10 mg/kg) was 2. For the same molecule, the complete regressions ([13]; 100 mg/kg) was 4, the partial regressions ([13]; 100 mg/kg) was 2 and the IC50 [14] was 0.057 µM. The “pMEK and pERK compared with DMSO control” value [15] was “increased pMEK and pERK”, the IC50 [16] was 0.079 µM and the “ALK5 inhibition in cell-based assay” value [17] was “absence of ALK5 inhibition”. It also gave an IC50 ([18]; 133 (88%) of the 152 RAS/RAF wild-type and all 18 mutant RAS cell lines) of over 10 µM, an IC50 ([18]; A673, 3 of the BRAF^V600E cell lines (GCT, RKO, A673)) of over 2 µM and an IC50 ([18]; sixteen (80%) of the 20 cell lines encoding BRAF^V600E) of under 0.2 µM.
